Molecular target: T1, recombinant human liver GK (Homo sapiens, UniProt P35557)
T1 construct: made in house; host or cells: E. coli
T1 sequence (P35557 1-466 isoform P35557-2): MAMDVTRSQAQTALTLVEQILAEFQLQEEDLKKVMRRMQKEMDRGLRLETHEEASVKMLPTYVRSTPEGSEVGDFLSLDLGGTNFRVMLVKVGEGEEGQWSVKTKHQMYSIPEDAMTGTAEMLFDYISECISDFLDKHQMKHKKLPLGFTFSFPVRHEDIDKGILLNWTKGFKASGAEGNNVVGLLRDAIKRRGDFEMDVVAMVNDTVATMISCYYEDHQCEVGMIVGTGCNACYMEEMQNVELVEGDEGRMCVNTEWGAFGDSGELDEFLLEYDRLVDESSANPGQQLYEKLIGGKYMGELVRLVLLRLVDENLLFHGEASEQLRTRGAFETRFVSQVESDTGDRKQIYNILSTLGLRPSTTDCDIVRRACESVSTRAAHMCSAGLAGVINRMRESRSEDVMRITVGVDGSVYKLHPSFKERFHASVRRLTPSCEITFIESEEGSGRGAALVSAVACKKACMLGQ
Assay: glucokinase activation assay (Thio-NADH, G6PDH-coupled)
Format: biochemical
Conditions: final glucose concentration 2.5 mM; 30° C.
Description: The excellent glucokinase-activating effect of the compounds of formula (I) may be determined by a method described in literature (e.g., Diabetes, Vol. 45, pp. 1671-1677, 1996), or in accordance with it.
The glucokinase activity may be determined not by directly measuring glucose-6-phosphate but by measuring the level of Thio-NADH, which is produced when a reporter enzyme, glucose-6-phosphate dehydrogenase produces phosphogluconolactone from glucose-6-phosphate, and based on that level, the level of glucokinase activation may be determined.
In this assay, used was a recombinant human liver GK, which was expressed by E. coli as a FLAG fusion protein therein and was purified by ANTIFLAG M2 AFFINITY GEL (Sigma).
Using a flat-bottomed 96-well plate, the assay was carried out at 30° C. 69 μl of an assay buffer (25 mM Hepes Buffer, pH=7.2, 2 mM MgCl2, 1 mM ATP, 0.5 mM TNAD, 1 mM dithiothreitol) was put into the plate, and 1 μl of a DMSO solution of the compound or DMSO alone as a control was added thereto. Next, 20 μl of an enzyme mixture (FLAG-GK, 20 U/ml G6PDH) cooled in ice was added to it, and 10 μl of a substrate, 25 mM glucose was added to it, and the reaction was initiated (final glucose concentration=2.5 mM).
After the start of the reaction, the increase in the absorbance at 405 nm was measured for 12 minutes at intervals of 30 seconds, and the increase for the first 5 minutes was used for evaluating the compound tested. FLAG-GK was added so that the absorbance increase after 5 minutes in the presence of 1% DMSO could be from 0.04 to 0.06.
The OD level of the DMSO control was set as 100%; and the OD level of the test compound at different concentrations was determined. From the OD level at each concentration, Emax (%) and EC50 (μM) were computed and used as the index of the GK-activating potency of the compound.

EC50 | Compound
180 nM | CCS(=O)(=O)c1ccc(Oc2cc3cc(-c4ccccn4)[nH]c3cc2Oc2cccnc2OC(F)F)cn1 [Example 2, 6-([2-(Difluoromethoxy)pyridin-3-yl]oxy)-5-([6-(ethylsulfonyl)pyridin-3-yl]oxy)-2-pyridin-2-yl-1H-indole]
70 nM | CS(=O)(=O)c1ccc(Oc2cc3cc(-c4ccccn4)[nH]c3cc2CN2CCCC2=O)cn1 [Example 3, 1-[(5-([6-(Methylsulfonyl)pyridin-3-yl]oxy)-2-pyridin-2-yl-1H-indol-6-yl)methyl]p-pyrrolidin-2-one]
50 nM | Cc1nc(-c2ccc(Oc3cc4cc(-c5ccccn5)[nH]c4cc3CN3CCCC3=O)cn2)no1 [Example 6, 1-[(5-([6-(5-Methyl-1,2,4-oxadiazol-3-yl)pyridin-3-yl]oxy)-2-pyridin-2-yl-1H-indol-6-yl)methyl]pyrrolidin-2-one]
